Laboratory results taken from patent US7728038B2, “Methods for chelation therapy” (priority 2004, dated 2010).
Marks after values point to notes of the source that are not given here.

How the values were obtained:
horse spleen ferritin = target: T1, horse spleen ferritin (Equus caballus, UniProt P02791+Q8MIP0); assay: Removal of iron from ferritin by incubation with chelators; type: biochemical; settings: Tris buffer 25 mM, pH 7.5, 37° C., chelator 0.47 mM, DFO 0.19 mM, up to 72 h
T1 construct: incubation of horse spleen ferritin with chelators 1a and 1b; from tissue; host or cells: horse spleen
T1 sequence (P02791 2-175 limits assumed): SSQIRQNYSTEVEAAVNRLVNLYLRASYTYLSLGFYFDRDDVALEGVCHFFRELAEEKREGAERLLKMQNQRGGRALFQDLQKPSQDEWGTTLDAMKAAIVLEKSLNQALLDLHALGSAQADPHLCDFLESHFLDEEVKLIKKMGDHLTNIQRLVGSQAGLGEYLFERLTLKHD
T1 sequence (Q8MIP0 whole entry): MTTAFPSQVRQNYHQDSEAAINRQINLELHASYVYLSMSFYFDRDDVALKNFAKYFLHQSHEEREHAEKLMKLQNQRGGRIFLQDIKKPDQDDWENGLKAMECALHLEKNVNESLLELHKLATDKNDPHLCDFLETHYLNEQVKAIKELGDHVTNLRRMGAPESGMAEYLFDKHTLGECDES
Procedure: These chelators reacted with iron (III) forming purple complexes (UV: λmax=456 nm (ε4.6×10^3) for 1a; λmax=459 nm (λ4.45×10^3) for 1b) which have the chelator iron stoichiometry of 3:1. […] The chelators can also react with Al and Zn forming white powder complexes, and with Cu forming a green colored complex. These complexes were very soluble in water. […] The removal of iron from ferritin was determined by incubation of horse spleen ferritin with chelators 1a and 1b in Tris buffer (25 mM, pH 7.5, 37° C.) at a concentration of 0.47 mM, using DFO (0.19 mM) as a reference chelator similar to that described by Kontoghiorghes. The concentrations of the iron complex were measured spectrophotometrically from λmax values. The kinetics of iron release were investigated for a of period up to 72 h.

ovariectomized (Ovx) rat [1] = assay: EPR free iron (BC) and LLOFR (NC) of humeral bone, OVX rats treated with estradiol; type: in vivo; settings: 17b-estradiol 10 μg/kg IP three times a week, 60 days post-surgery
Procedure: EPR-osseous tissue sample preparation and measurement: Samples of human femoral cortical bone preserved in 70% alcohol were initially crushed into large pieces (<1 mm) using a mortar and pestle. The granules were defatted with 10 changes of acetone and dried at 60° C. The samples then were further crushed and sieved to obtain a 250-600 micrometer fraction. The EPR measurement of approximately 100 mg of sample were made at 24° C. with values for g-factors of 2.00503±0.00019 (NC) and 2.00541±0.00085 (BC) and with widths of 0.916±0.0465 mT (NC) and 2.5 mT (BC) following a modification of known protocols.^74-75 A Bruker 300E spectrometer at 9.7 GHz was used for date collection.
Humeral bones from four groups of 3 or 4 rats (Sprague-Dawley, Charley River) each were evaluated. The baseline group consisting of 3 normal rats were sacrificed at six months of age using Ketamine-Xylazine anesthesia. The other three groups (4 rats each) were sham ovariectomized (SHAM) (one group) or ovariectomized (OVX) (two groups) at the same age. Bilateral ovariectomy was performed using a dorsal approach under aseptic conditions with Ketamine-Xylazine anesthesia.^76 One group of OVX animals was treated by estradiol IP injection with 10 μg/kg body weight of 17b-estradiol in benzyl alcohol/corn oil solution (5:95, vol/vol). The injections were three times a week. […]

ovariectomized (Ovx) rat [2] = assay: Micro-CT morphometry of lumbar vertebra cancellous bone in chelator-treated Ovx rats; type: in vivo
Procedure: (§1) Animal and treatment: Three-month-old female Sprague-Dawley rats (Charles River Laboratory) were obtained and housed with a 12 h light-dark cycle at constant room temperature (24° C.) and humidity. The rats were fed standard rat chow (#8640 Harland Teklad, Madison, Wis.) and water ad libitum. When aged 6 month, the rats were divided into four groups. One group was sacrificed as baseline controls at the beginning of the experiment. The remaining groups were sham operated (one group) or bilaterally ovariectomized (two groups) via a dorsal approach. Chelation treatment started from the second day after surgery and was given three times a week for 9 weeks. The chelator (1-N-Docosyltriethylenetetraminepentaacetic acid, GL22) was dissolved in saline (pH 7.5) and was administrated by oral gavage (100 μmole/kg), while control groups including the sham and Ovx operated animals received vehicle only in the same manner.
(§2) Tissue preparation and analyses: Humeral bone was fixed in 70% ethanol for measurement of tissue iron by EPR. Lumbar vertebrae were first fixed in 10% phosphate buffered formalin for 24 hours, then dehydrated in ascending concentrations of ethanol and embedded in methyl methacrylate. The blocks were trimmed for peripheral computed tomography (pQCT), micro-computed tomography (μ-CT) and later prepared for histomorphometric studies.
μ-CT measurement: Lumbar vertebra were scanned in all three dimensions with a high-resolution μ-CT (10 μm) (Scanco μCT-40, Scanco Medical, Bassersdorf, Switzerland). The complete third vertebral bodies were scanned with 600 slices, each containing 2048×2048 pixels. The trabecular and cortical part of the bodies were separated with semi-automatically drawn contours. The resulting grey-sclae images were segmented using a low-pass filter to remove noice and a fixed threshold to extract the mineralized bone phase. From the binary images, structural indices were assessed with three-dimensional techniques without model-assumptions of the appearance of trabecular bone and were calculated by measuring three-dimensional distances directly in the travecular network and taking the mean over all voxels. The region of interest was travecular bone in the lumbar vertebral body, excluding the prmary songiosa area, 0.5 mm from the growth plate.

[3] = system: heavy metal overload animals; settings: in vivo; cited from earlier work
ovariectomized (Ovx) rat [4] = assay: Whole body BMD by dual x-ray absorptiometry, OVX rats treated with GL22; type: in vivo
Procedure: (§3) In another experiment, four groups of 3 or 4 rats (Sprague-Dawley, Charley River) each were used. The baseline group consisted of 3 normal rats, which were sacrificed at six months of age. The humeral bones were collected for EPR free iron and LLOFR measurements and the whole body bone mineral density (BMD) was assessed by Dual x-ray absorptiometry (Hologic QDR1000 Plus) before necropsy. The other three groups were sham ovariectomized (one group) or ovariectomized (two groups) at the same age. The operation (a dorsal approach of bilateral ovariectomy) was under aseptic conditions with Ketamine-Xylazine anesthesia. One group of OVX animals was treated by chelation therapy with 30 μmol/kg body weight of GL22 in saline solution (pH 7.5). The GL22 was orally administered by intubation with a blunt-ended stainless steel needle three times a week. The other two groups received the saline solution without chelator by the same manner. All groups were sacrificed at 60 days post-surgery to collect humeral bones for EPR free iron and LLOFR measurements. Before the termination, whole body BMD was measured.

[5] = 241-Am retention in whole body and skeletal tissue of rats after GL22 treatment; type: in vivo; settings: GL22 50 μmol/rat/day in food for 90 days
Procedure: 12 Male Sprague-Dawley rats from Simonsen Laboratories (Gilroy, Calif.) at about 80 days of age were given an intravenous injection of 241-Am-citrate in a total volume of 0.2 mL. For chelator treatment, the GL22 was dissolved in saline and the pH was adjusted to 7.5 with NaOH. Fourteen days after administration of 241-Am-citrate, a chelator food ration was started at 50 μmol/rat/day for 90 days orally, while the same food ration without chelator was given to controls. 50 μmol of chelator was added to the daily food ration (25 g). The total body retention of 241-Am was measured using a whole body-counter and after necropsy the skeletal tissues were counted for 241-Am content. The experimental protocol was described in an earlier publication. […] The same results have also been found for 239-Pu. Moreover, the excretion of iron from iron overloaded male rats that were treated by chelator was tested. The same rats as above at the age of 180 days were given 10 mg of iron as iron-dextran (Sigma, St. Louis, Mo.) subcutaneously every 3 days for 6 weeks to induce iron overloading. Then, a low iron diet (Teklab diet #80396) was given to the rats for 2 weeks as the baseline iron excretion reached plateau levels, which was determined by GFAA measurement of iron in feces. The chelator treated rats were given 20 g of low iron diet with 30 μmol of GL22 and control rats were given just 20 g of low iron diet each day for 14 days. Feces were collected every day for determination of iron excretion. The samples of feces were placed in glazed porcelain crucibles, dried at 100° C. overnight and ashed in a muffle furnace at 550° C. for 18 h. The ashed feces were dissolved in 4 mL of 3 N HCl and quantitatively transferred to a volumetric flask. The crucibles were then rinsed twice with 5 ml of 0.36 N HCl. The concentration of iron was determined by GFAA spectrophotometry (Perkin Elmer). After 14 days of chelation treatment by oral administration there were significant increases in the amounts of iron found in the feces when compared with controls (Table 7).

ovariectomized (Ovx) rat [6] = assay: pQCT densitometry of lumbar vertebra BMD in chelator-treated Ovx rats; type: in vivo
Procedure: as §1, §2
pQCT densitometry: The L3 vertebra bodies were examined by pQCT densitometry (Norland Stratec XCT 960A, Birkenfeld, Germany) to determine bone mineral density (BMD) for the part from the middle point to the caudal end, excluding the primary spongiosa. A scout scan of the vertebra was performed, and on the scout view, a reference line was manually placed such that the cross-sectional slice passed through at a distance of 1, 2, 3 and 4 mm from caudal end of lumbar vertebra body. The voxel size was 196 μm. Contour mode 2, Peel mode 20, Cortical mode 2 and threshold 570 for cortical bone was chosen for the analysis. The mean BMD for all of the measured slices was then calculated.

ovariectomized (Ovx) rat [7] = assay: Free iron contents in humeral cortical bone of Ovx rats by EPR after oral chelation treatment; type: in vivo; settings: chelator 100 μmole/kg oral gavage three times a week for 9 weeks, FIG. 1
Procedure: as §1, with “manner. […]” for “manner.”
Iron measurement: Total iron contents of femoral cortical bones of aged women were assessed using ICP-OES performed by Galbraith Laboratories, Inc. (Knoxville, Tenn.). […] Each sample of about 100 mg was mixed with acid solution, microwave digested and measured. […]

iron overload rats = assay: Iron excretion in feces of iron overload rats treated by GL22 (GFAA); type: in vivo, rat; settings: 30 μmol GL22 in low iron diet each day for 14 days
Procedure: 12 Male Sprague-Dawley rats from Simonsen Laboratories (Gilroy, Calif.) at about 80 days of age were given an intravenous injection of 241-Am-citrate in a total volume of 0.2 mL. For chelator treatment, the GL22 was dissolved in saline and the pH was adjusted to 7.5 with NaOH. Fourteen days after administration of 241-Am-citrate, a chelator food ration was started at 50 μmol/rat/day for 90 days orally, while the same food ration without chelator was given to controls. 50 μmol of chelator was added to the daily food ration (25 g). The total body retention of 241-Am was measured using a whole body-counter and after necropsy the skeletal tissues were counted for 241-Am content. The experimental protocol was described in an earlier publication. […] The same results have also been found for 239-Pu. Moreover, the excretion of iron from iron overloaded male rats that were treated by chelator was tested. […] Then, a low iron diet (Teklab diet #80396) was given to the rats for 2 weeks as the baseline iron excretion reached plateau levels, which was determined by GFAA measurement of iron in feces. […] The ashed feces were dissolved in 4 mL of 3 N HCl and quantitatively transferred to a volumetric flask. […] The concentration of iron was determined by GFAA spectrophotometry (Perkin Elmer). […]

ovariectomized (Ovx) rat [8] = assay: EPR free iron (BC) and LLOFR (NC) of humeral bone, OVX rats treated with GL22; type: in vivo; settings: GL22 30 μmol/kg orally three times a week, 60 days post-surgery
Procedure: as §3

[9] = n-octanol/Tri-HCl buffer system; cited from earlier work
[10] = chelator-treated Ovx rats, μ-CT
[11] = Ovx rats treated with chelator, lumbar vertebra, pQCT

Cc1c(O)c(=O)ccn1COCCO [1a]
removing iron from ferritin, compared with DFO (horse spleen ferritin): more effective than DFO

CCc1c(O)c(=O)ccn1COCCO [1b]
removing iron from ferritin, compared with DFO (horse spleen ferritin): more effective than DFO

C[C@]12CC[C@@H]3c4ccc(O)cc4CC[C@H]3[C@@H]1CC[C@@H]2O [Estrogen, 17b-estradiol]
BC (free iron) of EPR signal of humeral bone (ovariectomized (Ovx) rat [1]): 214.3 ± 11.1^b a.u./mg | NC (LLOFR) of EPR signal of humeral bone (ovariectomized (Ovx) rat [1]): 1357.5 ± 101.4^b a.u./mg

CCCCCCCCCCCCCCCCCCCCCCN(CCN(CCN(CCN(CC(=O)O)CC(=O)O)CC(=O)O)CC(=O)O)CC(=O)O [GL22, 1-N-Docosyltriethylenetetraminepentaacetic acid]
BV/TV compared with sham control (ovariectomized (Ovx) rat [2]; Ovx rats treated with chelator): 85.2% | Tr. Sp. increase compared with sham control (ovariectomized (Ovx) rat [2]; Ovx rats treated with chelator): 8% | bone volume to tissue volume (BV/TV), higher than untreated Ovx rats (ovariectomized (Ovx) rat [2]; [10]): 9.1% | trabecular separation (Tr. Sp.), less than OVX controls (ovariectomized (Ovx) rat [2]; [10]): 10.2% | toxicity in treated heavy metal overload animals [3]: without any indications of toxicity | whole body BMD (ovariectomized (Ovx) rat [4]; OVX rats, GL22 30 μmol/kg orally three times a week, 60 days post-surgery): 0.188 ± 0.004^b g/cm2 | removal of Ca from bone (ovariectomized (Ovx) rat [4]; judged from BMD of chelator-treated OVX rats versus SHAM rats (Table 5)): not found to remove Ca from bone | 241-Am retention, Femur [5]: 4.06 ± 0.08% | 241-Am retention, Humerus [5]: 3.97 ± 0.09% | 241-Am retention, Vertebral body [5]: 4.05 ± 0.23% | 241-Am retention, Whole body ([5]; started 14 days after 241-Am-citrate iv): 50.8 ± 0.7% | Trabecula BMD of spine bone versus Ovx group (ovariectomized (Ovx) rat [6]; FIG. 2A, ANOVA p<0.01, 6 rats per group): significantly higher | Total BMD of spine bone versus Ovx group (ovariectomized (Ovx) rat [6]; FIG. 2B, ANOVA p<0.05, 6 rats per group): significantly higher | trabecular BMD compared with sham control (ovariectomized (Ovx) rat [6]; Ovx rats treated with chelator): 91.8% | trabecular BMD of the spine, higher than Ovx rats (ovariectomized (Ovx) rat [6]; [11]): 20% | trabecular BMD of the spine, less than sham control (ovariectomized (Ovx) rat [6]; [11]): 8.2% | iron content in bone, percent of that of Ovx rats without chelation treatment (ovariectomized (Ovx) rat [7]): 59.8% | iron content in bone, percent of that of sham controls (ovariectomized (Ovx) rat [7]): 73.0% | Excreted Fe from feces (iron overload rats): 1084.62 ± 88.54 | BC (free iron) in bone (ovariectomized (Ovx) rat [8]): 202.7 ± 32.9^b a.u./mg | NC (LLOFR) in bone (ovariectomized (Ovx) rat [8]): 1083 ± 127^b a.u./mg

Cc1c(O)c(=O)ccn1C [L1, 1,2-dimethyl-3-hydroxyl-4-pyridinone]
distribution coefficient (DC) [9]: 0.24
